The values below come from patent US20210205348A1, “Methods for the Treatment of Bladder Cancer” (Eisai R&D Management Co., Ltd., priority 2018, published 2021).

One series has as its system GL261 mouse glioma cells. Briefly: GL261 brain orthotopic model. In kind it is in vivo. The note with it: 10 mg/kg intratumorally, a single time. From the text: GL261 is a murine glioma cell line.
In the next series the test system is IFNβ. Briefly: Ex vivo human PBMC stimulation assay, IFNβ protein. The note with it: 24 hours, average of five donors. In kind it is cell-based. The method, then:
Human blood from 5 healthy donors was collected using 10.0 mL BD Vacutainer Sodium heparin tubes (cat #367874). Peripheral blood mononuclear cell (PBMC) isolation was done using SIGMA ACCUSPIN 50 ml Tubes (cat #A2055) and sigma ACCUSPIN System-HISTOPAQUE-1077 (cat #A7054) using protocol provided by manufacturer. […] PBMC were counted and finally suspended @ 1x10e6/ml in RPMI (corning cat #10-041-CV supplemented with 10% fetal bovine serum (FBS) (Gibco cat #20140.79). 1ml of cell (1×10e6) were transferred into Falcon 5 mL Round Bottom Polypropylene Test Tube (cat #352063) and stimulated with different concentrations (0, 0.1, 1, 10 uM) for 24 hours in 5% CO2 incubator at 37° C.
After 24 hours of incubation the tubes were centrifuged at 1400 rpm for 5 minutes and supernatants were harvested. Supernatant were stored in −80° C. for subsequent IFNβ measurement. IFNβ measurement was done using Human IFN-β Base Kit (Meso Scale Diagnostics cat #K151ADA) and protocol provided by manufacturer was used. IFN-beta estimation was done by reading assay plate at MESO SECTOR Imager 2400 and using MSD Discovery Workbench 4.0 program. After 24 hours IFNβ protein was analyzed.
Results shown in Table 3 reflect an average of measurements conducted using five different donors.

The subject of series [1] is CT26 tumor cells. In words: CT26 liver metastatic model. The note with it: 10 mg/kg intratumorally, a single time.
In series [2] the test system is CT26 tumor cells. In words: CT26 dual tumor model (mouse colon cancer model).
The next series concerns MBT-2 tumor cells. In words: MBT-2 murine bladder cancer orthotopic model. In kind it is in vivo, mouse. The method, then:
The protocol with HCl pre-treatment procedure described by Lee, et al. was applied to establish the model. In brief, 30 μL 0.1 N HCl solution was injected into mouse bladder through a catheter and HCl solution was allowed to remain in the bladder for 15 seconds. Then the HCl solution was replaced by 30 μL 0.1N NaOH solution followed by one flushing step with 1 X PBS (pH7.4). The follow-up tumor cell implantation procedure was modified from the original literature. In brief, after a flushing step, MBT-2 tumor cells (2 ×10^6 cells in 50 μL RPMI1640 medium) were instilled into the bladder and allowed to remain for 45 minutes. At the end of this 45 minute period, the bladder was drained.
On each day of dosing BCG was diluted in NaCl 0.9% (Lavoisier, France) to reach the final concentration of 16.875 mg/mL for dosing. Any leftover dosing solution was discarded after use. For anti-PD-1 antibody, 1 x PBS (Lonza, France) was used to dilute the stock solution to prepare 1 mg/mL working solution for dosing.
From days 20-21, tumor growth in bladder was quantitated by MRI (Magnetic resonance imaging) and tumor sizes of all mice were graphed as shown in FIG. 7.

The test system of the next series is hepatocytes of human. In words: Hepatocyte incubation, identification of potential metabolites. In kind it is in vitro ADME. The note with it: 10 μmol/L. The method, then:
(§1) Prior to incubations, the cryopreserved hepatocytes were thawed in a water bath at 37° C. One tube of cryopreserved hepatocytes was added to each 50-mL conical tube of cryopreserved hepatocyte recovery medium (UCRM) obtained from In Vitro ADMET Laboratories (Columbia, Md.). The cells were spun in a Beckman centrifuge (Brea, Calif.) with a GH 3.8 rotor at 740 rpm for 10 minutes at […]. The supernatant was removed and the cells were re-suspended in plating media for counting. After the cells were re-suspended in plating media, 20 μL of the re-suspension was transferred and mixed with 20 μL of AOPI staining solution. The solution was gently mixed and cells were counted using a Cellometer (Nexcelom, Lawrence, Mass.). After counting, the cells were then re-suspended at 1 or 2 million viable cells/mL in Williams' E media containing 2 mmol/L L-glutamine (pH 7.4).
(§2) The hepatocyte suspension (50 μL/well) was added into a 48-well plate. […] The plate was placed into a tissue culture incubator (5% CO2/95% air humidified atmosphere and 37° C.), and the reactions were terminated with 200 μL of stop solution consisting of 100% methanol/acetonitrile (1/1, v/v) with 2010 ng/mL furosemide and 0.2 μmol/L (R)-propranolol at 5, 30, 60, 120, 180 and 240 minutes. The mixture was centrifuged and filtered, and the supernatant was collected for analysis. The final concentrations of cryopreserved hepatocytes were 1×10^6 cells/mL.
(§3) The LC-MS/MS system was composed of a Shimadzu HPLC and an AB-SCIEX TripleTOF 5600 hybrid quadrupole and TOF mass spectrometer (Framingham, Mass.). The Shimadzu HPLC (Kyoto, Japan), consisted of a communications bus module (CBM-20A), an auto-sampler (SIL-30AC) with an attached rack changer (Rack Changer II) two pumps (LC-30AD) and a column oven (CTO-30A). The mass spectrometer was calibrated using the AB-SCIEX APCI both Negative and Positive Calibration Solutions (Framingham, Mass.). The samples obtained from incubations with hepatocytes were analyzed under both negative and positive scan modes. The basic analytical method and instrumental conditions are summarized below. Modification of the spectrometer settings was dependent on the necessity of the analyte.
(§4) Mass spectrometry data were acquired using AB-Sciex Analyst TF (Version 1.5.1; Framingham, Mass.). Chromatograms and spectra were obtained using AB-Sciex PeakView (Version 2.2.0.1; Framingham, Mass.). The comparison of relative peak areas for extracted ion chromatograms were based on ±0.0002 Da of the expected exact mass-to-charge ratio (m/z) for each analyte of interest.

Series [3] deals with hepatocytes of Sprague Dawley rat. The description is as above. In kind it is in vitro ADME. To be noted: 10 μmol/L. The method, then:
as §1, §2, §3, §4

Series [4] deals with hepatocytes of Cynomoigus monkey. The series is described as above. In kind it is in vitro ADME. The note with it: 10 μmol/L. The procedure: as §1, §2, §3, §4
Series [5] relates to hepatocytes of CD-1 mouse. The series is described as above. In kind it is in vitro ADME. The note with it: 10 μmol/L. The method, then:
as §1, §2, §3, §4

In series [6] the test system is hepatocytes of Beagle dog. The series is described as above. In kind it is in vitro ADME. The note with it: 10 μmol/L. The procedure:
as §1, §2, §3, §4

Regarding `O=P1(S)OCC2OC3C(F)C2OP(=O)(S)OCC2OC(C(F)C2O1)n1cnc2c(ncnc21)NCC=CCNc1ncnc2c1ncn23` (centres unmarked) [Compound 1a], the “activity at local sc tumors” value in the series with GL261 mouse glioma cells was “potent activity”. In addition, the figures for the “curative systemic activity (treated animals)” value in the series with GL261 mouse glioma cells (into the sc tumor) and with CT26 tumor cells [1] (into the sc tumor) were 5 of 8 and 9 of 10, respectively. Besides, the values for the IFNβ with IFNβ (0.1 μM), with IFNβ (1 μM) and in the series on IFNβ (10 μM) were 21.3 ± 17.8 pg/mL, 227.5 ± 62.4 pg/mL and 540.2 ± 215.0 pg/mL, respectively. Also, the “activity towards the local sc tumors” value in the series on CT26 tumor cells [1] is listed as “potent activity”. Further, the “cure rate, treated tumors” value with CT26 tumor cells [2] (0.6 mg/kg I.T. single dose) came out at 20%. In the series with CT26 tumor cells [2] (10 mg/kg I.T. single dose), the “curative effects, untreated tumors” value was 80%. Besides, the “animals cured, treated tumors” value with CT26 tumor cells [2] (10 mg/kg I.T. single dose, end of study) came to 100%. The “effect on untreated tumors” value in the series with CT26 tumor cells [2] (all the lower doses (0.6 to 5 mg/kg) I.T. single dose) was “tumor growth inhibition activity”. The “tumor volumes quantified by MRI” value in the series with MBT-2 tumor cells (days 20-21, 100, 200, 400 μg/mouse IVe Q7Dx3, also 400 μg/mouse with PD1 antibody (Groups 4 to 7), vs vehicle, BCG and PD1 antibody groups) is recorded as “much smaller tumor volumes”. The “survival relative to vehicle treated animals” value in the series with MBT-2 tumor cells (intravesicular, Q7Dx3 (FIG. 8)) was “statistically significant survival benefit”. For the same compound, the “formation of major metabolites” value in the series on hepatocytes of human (human hepatocytes, LC-MS/MS) is given as “No apparent metabolite”; in [3] (rat hepatocytes, LC-MS/MS) it was “No apparent metabolite”; in series [4] (monkey hepatocytes, LC-MS/MS), “No apparent metabolite”; in series [5] (mouse hepatocytes, LC-MS/MS) it was “No apparent metabolite”; in series [6] (dog hepatocytes, LC-MS/MS) it was “No apparent metabolite”. In addition, the “stability in incubations with hepatocytes” value with hepatocytes of human (human, up to 240 minutes) is “stable”; in series [3] (rat, up to 240 minutes), “stable”; in [4] (monkey, up to 240 minutes), “stable”; in series [5] (mouse, up to 240 minutes), “stable”; in series [6] (dog, up to 240 minutes), “stable”.
